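How tested: cells in 96-well plates exposed to compound for 48 hours at five concentrations. GI50: concentration for 50% inhibition of growth.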 Calls of active or inactive are those of the source. No stated cut-off is given here; in the data, active = GI50 up to about 1.1 µM and inactive = higher.
What was measured:
Assay in all cases: inhibition of tumour cell growth, NCI panel, 48 h
SK-MEL-2 = tested on: SK-MEL-2
A498 = tested on: A498
OVCAR-8 = tested on: OVCAR-8
786-0 = tested on: 786-0
NCI-H460 = tested on: NCI-H460
SK-MEL-28 = tested on: SK-MEL-28
TK-10 = tested on: TK-10
MOLT-4 = tested on: MOLT-4
SN12C = tested on: SN12C
HT-29 = tested on: HT-29
UACC-62 = tested on: UACC-62
SW-620 = tested on: SW-620
K562 = tested on: K562
A549 = tested on: A549
SF-295 = tested on: SF-295
HOP-62 = tested on: HOP-62
HOP-92 = tested on: HOP-92
Hs-578T = tested on: Hs-578T
MCF7 = tested on: MCF7

Measured: GI50

Nc1ccc(C(=O)NN2C(=O)C(Cl)C2c2cccc(O)c2)cc1 (centres undefined)
inactive: SK-MEL-2 15 µM | A498 35.2 µM | OVCAR-8 19.9 µM | 786-0 13.4 µM | NCI-H460 14 µM | SK-MEL-28 16.9 µM | TK-10 16.7 µM | MOLT-4 11.3 µM | SN12C 17.8 µM | HT-29 17.4 µM | UACC-62 14.8 µM | SW-620 19.2 µM | K562 10.8 µM | A549 19.8 µM | SF-295 18.3 µM | HOP-62 15.4 µM | HOP-92 17.4 µM

CC1CC(=O)C(CC(=O)O)C1C(C(=O)C(=O)Nc1c(C#N)cccc1[N+](=O)[O-])[N+](=O)[O-] (centres undefined)
inactive: SK-MEL-2 > 100 µM | A498 > 100 µM | OVCAR-8 > 100 µM | 786-0 > 100 µM | NCI-H460 > 100 µM | SK-MEL-28 > 100 µM | TK-10 > 100 µM | MOLT-4 > 100 µM | HT-29 > 100 µM | UACC-62 > 100 µM | SW-620 > 100 µM | K562 > 100 µM | A549 > 100 µM | SF-295 > 100 µM | HOP-62 > 100 µM | HOP-92 82.2 µM

CC(C)(C)OC(=O)NC(Cc1ccccc1)C(=O)OCN1C(=O)C2C3C=CC(C2C1=O)C1C2C(=O)N(COC(=O)C(Cc4ccccc4)NC(=O)OC(C)(C)C)C(=O)C2C31 (centres undefined)
inactive: SK-MEL-2 29.8 µM | A498 25.9 µM | Hs-578T 18.7 µM | OVCAR-8 30.1 µM | 786-0 28.2 µM | NCI-H460 3.82 µM | SK-MEL-28 34.6 µM | TK-10 31 µM | MOLT-4 10 µM | SN12C 25.5 µM | HT-29 12.9 µM | MCF7 13.4 µM | UACC-62 44.8 µM | SW-620 26.3 µM | K562 23.1 µM | A549 8.28 µM | SF-295 34.4 µM | HOP-62 30.4 µM | HOP-92 86.5 µM

CCCCN(CCCC)CC(C(=O)Nc1ccc([N+](=O)[O-])cc1[N+](=O)[O-])/C(C)=N\NC(=O)C[N+](C)(C)C (centres undefined)
inactive: SK-MEL-2 > 100 µM | A498 52.7 µM | OVCAR-8 > 100 µM | 786-0 > 100 µM | NCI-H460 55.7 µM | SK-MEL-28 > 100 µM | TK-10 > 100 µM | MOLT-4 > 100 µM | SN12C > 100 µM | HT-29 75.9 µM | UACC-62 > 100 µM | K562 28.8 µM | A549 > 100 µM | SF-295 > 100 µM | HOP-62 > 100 µM | HOP-92 33 µM

CC(=O)Oc1cccc2c1C(=O)CCCC2
inactive: SK-MEL-2 > 100 µM | A498 > 100 µM | Hs-578T > 100 µM | OVCAR-8 > 100 µM | 786-0 > 100 µM | NCI-H460 > 100 µM | SK-MEL-28 > 100 µM | TK-10 > 100 µM | MOLT-4 > 100 µM | SN12C > 100 µM | HT-29 > 100 µM | MCF7 > 100 µM | UACC-62 > 100 µM | SW-620 > 100 µM | K562 > 100 µM | A549 > 100 µM | SF-295 > 100 µM | HOP-62 > 100 µM

Oc1ccc(Cl)cc1C1=NC(/N=C\c2ccccc2)=NC(c2ccccc2)C1 (centres undefined)
inactive: SK-MEL-2 > 100 µM | A498 73.6 µM | Hs-578T > 100 µM | OVCAR-8 20 µM | 786-0 19.1 µM | SK-MEL-28 > 100 µM | TK-10 > 100 µM | MOLT-4 > 100 µM | SN12C 14.7 µM | HT-29 24.8 µM | MCF7 7.83 µM | UACC-62 > 100 µM | SW-620 > 100 µM | K562 > 100 µM | A549 21.7 µM | SF-295 > 100 µM | HOP-62 25.7 µM | HOP-92 > 100 µM

CCOC(=O)c1cc(C2CCN(Cc3ccccc3)C2=O)c(C(=O)C(=[N+]=[N-])C(C)=O)[nH]1 (centres undefined)
inactive: SK-MEL-2 > 100 µM | A498 > 100 µM | Hs-578T > 100 µM | OVCAR-8 > 100 µM | 786-0 > 100 µM | NCI-H460 > 100 µM | SK-MEL-28 > 100 µM | MOLT-4 > 100 µM | SN12C > 100 µM | HT-29 > 100 µM | MCF7 > 100 µM | UACC-62 > 100 µM | SW-620 > 100 µM | K562 > 100 µM | A549 > 100 µM | SF-295 > 100 µM | HOP-62 > 100 µM | HOP-92 > 100 µM

O=C(CSSCC(=O)OCCS(=O)(=O)Nc1ccc(Br)cc1)OCCS(=O)(=O)Nc1ccc(Br)cc1
inactive: SK-MEL-2 12.5 µM | A498 11.8 µM | OVCAR-8 10.4 µM | 786-0 > 10 µM | NCI-H460 14.5 µM | SK-MEL-28 21.7 µM | TK-10 20.7 µM | MOLT-4 3.11 µM | SN12C 18.7 µM | HT-29 4.1 µM | UACC-62 13 µM | SW-620 8.45 µM | K562 10.4 µM | A549 19 µM | SF-295 12.2 µM | HOP-62 > 10 µM | HOP-92 13.1 µM

COC(=O)C(CC(=O)Nc1ccc(Cl)c(Cl)c1)C(=O)C(=O)Nc1ccc(Cl)c(Cl)c1 (centres undefined)
inactive: SK-MEL-2 > 100 µM | A498 > 100 µM | OVCAR-8 > 100 µM | 786-0 > 100 µM | NCI-H460 > 100 µM | SK-MEL-28 > 100 µM | TK-10 > 100 µM | MOLT-4 94.6 µM | SN12C > 100 µM | HT-29 > 100 µM | UACC-62 > 100 µM | SW-620 > 100 µM | K562 > 100 µM | A549 > 100 µM | SF-295 > 100 µM | HOP-62 > 100 µM | HOP-92 > 100 µM

C[N+](C)(C)CCOC(=O)/C=C/c1c[nH]cn1
inactive: SK-MEL-2 > 500 µM | A498 > 500 µM | OVCAR-8 > 500 µM | NCI-H460 > 500 µM | SK-MEL-28 > 500 µM | MOLT-4 > 316 µM | SN12C > 500 µM | HT-29 > 500 µM | MCF7 > 500 µM | UACC-62 > 500 µM | SW-620 > 500 µM | K562 > 500 µM | A549 > 500 µM | SF-295 > 500 µM | HOP-62 > 500 µM | HOP-92 492 µM

COc1cc(/C=C2\[C@H]3c4c(c(OC)c(C)c(OC)c4OC)C[C@@H](C(=O)N2Cc2ccccc2)N3C(=O)OC(C)C)c(OC)c(C)c1OC
inactive: SK-MEL-2 > 100 µM | A498 > 100 µM | OVCAR-8 > 100 µM | 786-0 > 100 µM | NCI-H460 5.31 µM | SK-MEL-28 > 100 µM | TK-10 79.3 µM | MOLT-4 42.9 µM | SN12C 88.7 µM | HT-29 53.2 µM | UACC-62 92.9 µM | SW-620 54 µM | K562 40 µM | A549 > 100 µM | SF-295 > 100 µM | HOP-62 > 100 µM | HOP-92 8.34 µM

NC(=O)C12C3C4C1C1C2C3C41C(N)=O (centres undefined)
inactive: SK-MEL-2 > 100 µM | A498 > 100 µM | OVCAR-8 > 100 µM | 786-0 > 100 µM | NCI-H460 > 100 µM | SK-MEL-28 > 100 µM | TK-10 > 100 µM | MOLT-4 > 100 µM | SN12C > 100 µM | HT-29 > 100 µM | UACC-62 > 100 µM | SW-620 > 100 µM | K562 > 100 µM | A549 > 100 µM | SF-295 > 100 µM | HOP-62 > 100 µM | HOP-92 > 100 µM

O=C1c2ccc(O)c(O)c2C(=O)c2c(O)ccc(O)c21 [QUINALIZARIN]
inactive: SK-MEL-2 25.7 µM | A498 26.3 µM | OVCAR-8 28.1 µM | 786-0 26.3 µM | NCI-H460 21.2 µM | SK-MEL-28 56 µM | TK-10 33.8 µM | MOLT-4 23.1 µM | SN12C 24 µM | HT-29 35.2 µM | UACC-62 21.4 µM | SW-620 28.2 µM | K562 26.5 µM | A549 21.1 µM | SF-295 27.1 µM | HOP-62 26.8 µM | HOP-92 25.4 µM

COc1ccc(S(=O)(=O)c2nnc(S(=O)(=O)Cc3ccccc3)s2)cc1
inactive: SK-MEL-2 18.3 µM | A498 18.6 µM | Hs-578T 21.3 µM | OVCAR-8 21.9 µM | 786-0 18.8 µM | NCI-H460 17.4 µM | SK-MEL-28 20.5 µM | TK-10 15.7 µM | MOLT-4 2.58 µM | SN12C 23.7 µM | HT-29 17.9 µM | MCF7 19.2 µM | SW-620 15 µM | K562 5.92 µM | A549 20.8 µM | SF-295 33.3 µM | HOP-62 30.3 µM

CCOC(=O)C(=Cc1cc(OC)ccc1OC)C(=O)OCC
inactive: SK-MEL-2 4.75 µM | A498 14.4 µM | OVCAR-8 4.72 µM | 786-0 3.56 µM | NCI-H460 30.2 µM | SK-MEL-28 4.71 µM | TK-10 > 10 µM | MOLT-4 5.89 µM | SN12C 5.27 µM | HT-29 3.85 µM | UACC-62 1.83 µM | SW-620 3.52 µM | K562 3.42 µM | A549 6.3 µM | SF-295 12.4 µM | HOP-62 10.4 µM | HOP-92 3.2 µM

CN(C)CC[N+]1=Nc2cccc3cccc(c23)N1
inactive: SK-MEL-2 > 100 µM | A498 44.6 µM | OVCAR-8 43.6 µM | 786-0 55.1 µM | NCI-H460 16.9 µM | SK-MEL-28 > 100 µM | TK-10 > 100 µM | MOLT-4 21.6 µM | SN12C 57.9 µM | HT-29 35.3 µM | UACC-62 99.8 µM | SW-620 20.2 µM | K562 26.4 µM | A549 44.1 µM | SF-295 > 100 µM | HOP-62 71 µM | HOP-92 34.2 µM
